Laboratory results reported in patent US20260306642A1, “STAT DEGRADERS AND USES THEREOF” (Recludix Pharma, Inc., priority 2023, published 2026).
pIC50: −log10 of the molar value. Read-outs that look alike come from different tables or passages of the source.

Tests used:
STAT3 = target: T1, STAT3 (Homo sapiens, UniProt P40763); assay: STAT3 Fluorescence Polarization (FP) Assay; assay type: binding
T1 construct: Recombinant STAT3 protein (STAT3(G127-I722))
Experimental: An FP assay was developed to determine IC50 values for test substances.
Recombinant STAT3 protein (STAT3(G127-I722)) at 25 nM was combined with a fluorescently labeled, phosphotyrosine peptide probe (5-FAM-GpYLPQTV-NH2) at 2 nM in FP buffer (10 mM HEPES pH 7.4, 50 mM NaCl, 1 mM EDTA, 0.05% Tween 20, 2 mM DTT). 50 μL of STAT3-probe mixture was added to serial diluted compounds in black, 96-well plates (Greiner BioOne 655076) to a final concentration of 1% DMSO. Reaction components were mixed, and FP was measured after 45-minute incubation at room temperature using a Tecan Spark multimode plate reader. FP signal (mP) was plotted against the log concentration of the test substances and IC50 values were calculated by nonlinear regression analysis using GraphPad Prism software. For STAT3 FP assay, A=≤100 nM; B=>100-1000 nM; C=>1-10 μM; and D=>10 μM.

pSTAT3 = pSTAT3 (Homo sapiens, UniProt P40763); assay: MSD-pSTAT-PBMC Assay (pSTAT3, IL-6 stimulated); assay type: cell-based
Chain of pSTAT3 (P40763 whole entry): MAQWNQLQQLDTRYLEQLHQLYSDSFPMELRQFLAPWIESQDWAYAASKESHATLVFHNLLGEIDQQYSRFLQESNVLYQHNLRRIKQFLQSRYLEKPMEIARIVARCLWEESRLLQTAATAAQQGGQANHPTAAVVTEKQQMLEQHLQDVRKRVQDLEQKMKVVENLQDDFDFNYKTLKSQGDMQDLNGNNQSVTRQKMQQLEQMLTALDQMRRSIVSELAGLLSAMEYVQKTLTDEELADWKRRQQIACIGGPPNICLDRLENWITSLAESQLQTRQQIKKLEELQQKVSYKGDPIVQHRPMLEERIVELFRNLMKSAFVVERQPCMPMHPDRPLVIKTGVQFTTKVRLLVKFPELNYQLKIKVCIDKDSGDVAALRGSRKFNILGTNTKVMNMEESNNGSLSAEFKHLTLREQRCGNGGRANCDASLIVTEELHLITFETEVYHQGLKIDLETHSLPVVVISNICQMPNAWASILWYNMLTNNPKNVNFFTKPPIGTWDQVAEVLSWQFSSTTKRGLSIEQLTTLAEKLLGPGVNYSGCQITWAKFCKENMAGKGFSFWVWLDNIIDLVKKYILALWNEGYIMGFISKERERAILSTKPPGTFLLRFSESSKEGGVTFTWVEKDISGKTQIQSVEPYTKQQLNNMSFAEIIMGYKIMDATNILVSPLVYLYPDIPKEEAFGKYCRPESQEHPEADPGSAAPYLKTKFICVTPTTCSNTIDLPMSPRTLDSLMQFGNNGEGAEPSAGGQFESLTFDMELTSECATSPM
Excerpt: Cryopreserved Peripheral Blood Mononuclear Cells (PBMC) are from AllCells. Recombinant Human IL-4 and IL-6 are from Peprotech. Mouse monoclonal anti-STAT3 antibody, rabbit monoclonal anti-pY705-STAT3 antibody, rabbit monoclonal Anti-pY641-STAT6 antibody, and lysis buffer are from Cell Signaling Technology (CST). Mouse monoclonal anti-STAT6 antibody is from BioLegend. Assay plates, blocker, and anti-rabbit secondary antibody are from Meso Scale Discovery (MSD).
Cryopreserved PBMCs were thawed out and allowed to recover overnight in IMDM+10% heat-inactivated FBS prior to plating 50,000 (STAT3) or 25,000 (STAT6) cells per well in 96-well U-bottom tissue culture plates. Cells were treated with compound for 3 hrs, then stimulated with 10 ng/mL IL-6 (STAT3) or 1 ng/mL IL-4 (STAT6) for 10 min. Cells were then spun down and washed with ice-cold PBS prior to lysing the cell pellet with 1× lysis buffer (CST) with 1× HALT protease and phosphatase inhibitor cocktail (Thermo). Lysates were transferred to and incubated overnight at 4° C. with shaking in QuickPlex 96-well high bind assay plates (MSD) pre-coated overnight with 30 μL per well of […] mouse monoclonal anti-STAT3 antibody (STAT3) or 2 μg/mL mouse monoclonal anti-STAT6 antibody (STAT6) in 1× PBS, and pre-blocked for 1 hour with 3% Blocker-A (MSD). Captured protein in the assay plates were then washed and probed with 25 μL per well of […] rabbit monoclonal anti-pY705-STAT3 antibody (STAT3) or […] rabbit monoclonal Anti-pY641-STAT6 antibody (STAT6) in 1% Blocker-A for 1 hour at room temperature with shaking, then washed and probed with 25 ul per well of 1 ug/ml Sulfo-TAG Labeled Goat Anti-Rabbit Antibody (MSD) in 1% Blocker-A for 1 hour at room temperature with shaking. Assay plates were then washed and 150 μL of 1× Read Buffer-T (MSD) was added to each well prior to reading on an SQ120 MSD Plate Reader. Assay signal from each sample was subtracted by the signal from unstimulated control wells and normalized to DMSO control wells. IC50 values were calculated using Graph Pad Prism Dose-Response Nonlinear Regression with variable slope. For both pSTAT3 and pSTAT6 A=≤100 nM; B=>100-1000 nM; C=>1000-3000 nM; and D=>3 μM.

STAT6 = target: T2, STAT6 (Homo sapiens, UniProt P42226); assay: STAT6 Fluorescence Polarization (FP) Assay; assay type: binding
T2 construct: Recombinant STAT6 protein (STAT6(W123-T658))
T2 sequence (P42226 123-658): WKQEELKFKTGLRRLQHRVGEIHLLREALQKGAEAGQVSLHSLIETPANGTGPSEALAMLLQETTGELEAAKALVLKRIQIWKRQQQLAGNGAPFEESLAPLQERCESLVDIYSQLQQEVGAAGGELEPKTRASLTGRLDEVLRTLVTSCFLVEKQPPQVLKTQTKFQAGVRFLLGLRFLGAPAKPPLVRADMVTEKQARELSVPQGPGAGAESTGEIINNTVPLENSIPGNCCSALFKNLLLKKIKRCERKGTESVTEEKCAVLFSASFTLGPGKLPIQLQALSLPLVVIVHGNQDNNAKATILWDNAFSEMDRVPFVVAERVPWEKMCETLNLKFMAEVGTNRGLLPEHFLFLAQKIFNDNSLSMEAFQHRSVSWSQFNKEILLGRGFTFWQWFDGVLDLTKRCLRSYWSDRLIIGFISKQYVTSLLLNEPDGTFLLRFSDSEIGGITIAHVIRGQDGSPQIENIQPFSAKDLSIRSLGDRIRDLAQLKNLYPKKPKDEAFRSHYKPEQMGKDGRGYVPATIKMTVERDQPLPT
Experimental: An FP assay was developed to determine IC50 values for test substances. Recombinant STAT6 protein (STAT6(W123-T658)) at 250 nM was combined with a fluorescently labeled, phosphotyrosine peptide probe (5-FAM-ApYKPFQDLI-NH2) at 2 nM in FP buffer (10 mM HEPES pH 7.4, 50 mM NaCl, 1 mM EDTA, 0.05% Tween 20, 2 mM DTT). 50 μL of STAT6-probe mixture was added to serial diluted compounds in black, 96-well plates (Greiner BioOne 655076) to a final concentration of 1% DMSO. Reaction components were mixed, and FP was measured after 45-minute incubation at room temperature using a Tecan Spark multimode plate reader. FP signal (mP) was plotted against the log concentration of the test substances and IC50 values were calculated by nonlinear regression analysis using GraphPad Prism software. For STAT6 FP assay, A=≤300 nM; B=>300-3000 nM; C=>3-30 μM; and D=>30 μM.

[1] = read-out: pSTAT3 IC50, compound 3 hrs, then 10 ng/mL IL-6 10 min, pY705-STAT3
[2] = compound 3 hrs, then 10 ng/mL IL-6 10 min, pY705-STAT3, read-out: pSTAT3 IC50

T1 sequence (P40763 127-722): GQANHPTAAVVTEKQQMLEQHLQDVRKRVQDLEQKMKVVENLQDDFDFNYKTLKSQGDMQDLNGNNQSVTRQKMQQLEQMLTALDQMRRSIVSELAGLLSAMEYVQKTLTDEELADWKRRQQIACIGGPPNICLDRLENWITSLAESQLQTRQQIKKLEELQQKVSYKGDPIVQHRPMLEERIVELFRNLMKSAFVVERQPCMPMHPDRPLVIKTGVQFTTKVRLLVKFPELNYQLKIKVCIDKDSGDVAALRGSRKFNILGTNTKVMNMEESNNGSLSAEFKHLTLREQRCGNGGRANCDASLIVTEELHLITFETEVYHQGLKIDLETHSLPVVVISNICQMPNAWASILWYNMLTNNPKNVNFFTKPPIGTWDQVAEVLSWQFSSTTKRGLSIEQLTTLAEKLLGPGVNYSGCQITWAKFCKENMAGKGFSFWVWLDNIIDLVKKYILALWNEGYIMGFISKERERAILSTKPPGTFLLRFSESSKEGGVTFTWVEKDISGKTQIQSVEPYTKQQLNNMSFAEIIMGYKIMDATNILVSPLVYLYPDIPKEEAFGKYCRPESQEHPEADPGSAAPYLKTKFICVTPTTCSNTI

Row | Structure (SMILES) | pIC50 (pSTAT3; [2]) | pIC50 (STAT3) | pIC50 (pSTAT3; [1]) | pIC50 (STAT6)
1 | O=C(COc1cccc2c1C(=O)N(C1CCC(=O)NC1=O)C2=O)NCCOCCOCC(=O)NC1(c2ccccn2)CN(C(=O)[C@@H]2CC[C@H]3CCCC[C@H](NC(=O)c4cc5cc(C(F)(F)P(=O)(O)O)ccc5s4)C(=O)N32)C1 (stereo partly drawn) [Compound 32, ((2-(((3S,6S,10aR)-3-(3-(2-(2-(2-(2-((2-(2,6-dioxopiperidin-3-yl)-1,3-dioxoisoindolin-4-yl)oxy)acetamido)ethoxy)ethoxy)acetamido)-3-(pyridin-2-yl)azetidine-1-carbonyl)-5-oxodecahydropyrrolo[1,2-a]azocin-6-yl)carbamoyl)benzo[b]thiophen-5-yl)difluoromethyl)phosphonic acid] | – | > 7.00 | < 5.52 | 4.52 to 5.52
2 | Cc1ncsc1-c1ccc([C@H](C)NC(=O)[C@@H]2C[C@@H](O)CN2C(=O)[C@@H](NC(=O)COCCOCCC(=O)NC2(c3ccccn3)CN(C(=O)[C@@H]3CC[C@H]4CCCC[C@H](NC(=O)c5cc6cc(C(F)(F)P(=O)(O)O)ccc6s5)C(=O)N43)C2)C(C)(C)C)cc1 [Compound 33, (difluoro(2-(((3S,6S,10aR)-3-(3-(3-(2-(2-(((S)-1-((2S,4R)-4-hydroxy-2-(((S)-1-(4-(4-methylthiazol-5-yl)phenyl)ethyl)carbamoyl)pyrrolidin-1-yl)-3,3-dimethyl-1-oxobutan-2-yl)amino)-2-oxoethoxy)ethoxy)propanamido)-3-(pyridin-2-yl)azetidine-1-carbonyl)-5-oxodecahydropyrrolo[1,2-a]azocin-6-yl)carbamoyl)benzo[b]thiophen-5-yl)methyl)phosphonic acid] | – | > 7.00 | < 5.52 | 4.52 to 5.52
3 | Cn1c(=O)n(C2CCC(=O)NC2=O)c2ccc(C#CCCC3CCN(c4ccncc4C4CN(C(=O)[C@@H]5CC[C@@H]6CCC[C@H](NC(=O)c7cc8cc(C(F)(F)P(=O)(O)O)ccc8s7)C(=O)N65)C4)CC3)cc21 (stereo partly drawn) [Compound 34, ((2-(((3S,6S,9aS)-3-(3-(4-(4-(4-(1-(2,6-dioxopiperidin-3-yl)-3-methyl-2-oxo-2,3-dihydro-1H-benzo[d]imidazol-5-yl)but-3-yn-1-yl)piperidin-1-yl)pyridin-3-yl)azetidine-1-carbonyl)-5-oxooctahydro-1H-pyrrolo[1,2-a]azepin-6-yl)carbamoyl)benzo[b]thiophen-5-yl)difluoromethyl)phosphonic acid] | 6.00 to 7.00 | > 7.00 | – | 5.52 to 6.52
4 | Cn1c(=O)n(C2CCC(=O)NC2=O)c2ccc(C#CCCC3CCN(c4ccncc4C4CN(C(=O)[C@@H]5CC[C@@H]6CCC[C@H](NC(=O)c7cc8cc([C@@H](F)P(=O)(O)O)ccc8s7)C(=O)N65)C4)CC3)cc21 (stereo partly drawn) [Compound 40, ((1S)-(2-(((3S,6S,9aS)-3-(3-(4-(4-(4-(1-(2,6-dioxopiperidin-3-yl)-3-methyl-2-oxo-2,3-dihydro-1H-benzo[d]imidazol-5-yl)but-3-yn-1-yl)piperidin-1-yl)pyridin-3-yl)azetidine-1-carbonyl)-5-oxooctahydro-1H-pyrrolo[1,2-a]azepin-6-yl)carbamoyl)benzo[b]thiophen-5-yl)fluoromethyl)phosphonic acid] | – | > 7.00 | > 7.00 | < 4.52

Now from value to compound, other results behind:

Row | pIC50 (pSTAT3; [2]) | Structure (SMILES) | pIC50 (STAT3) | pIC50 (pSTAT3; [1]) | pIC50 (STAT6)
5 | 6.00 to 7.00 | Cn1c(=O)n(C2CCC(=O)NC2=O)c2ccc(C#CCCC3CCN(c4ccncc4C4CN(C(=O)[C@@H]5CC[C@@H]6CCC[C@H](NC(=O)c7cc8cc(C(F)P(=O)(O)O)ccc8s7)C(=O)N65)C4)CC3)cc21 (stereo partly drawn) [Compound 36, ((2-(((3S,6S,9aS)-3-(3-(4-(4-(4-(1-(2,6-dioxopiperidin-3-yl)-3-methyl-2-oxo-2,3-dihydro-1H-benzo[d]imidazol-5-yl)but-3-yn-1-yl)piperidin-1-yl)pyridin-3-yl)azetidine-1-carbonyl)-5-oxooctahydro-1H-pyrrolo[1,2-a]azepin-6-yl)carbamoyl)benzo[b]thiophen-5-yl)fluoromethyl)phosphonic acid] | > 7.00 | – | < 4.52
6 | 6.00 to 7.00 | Cn1c(=O)n(C2CCC(=O)NC2=O)c2ccc(C#CCCC3CCN(c4ccncc4C4CN(C(=O)[C@@H]5CC[C@@H]6CCC[C@H](NC(=O)c7cc8cc([C@H](F)P(=O)(O)O)ccc8s7)C(=O)N65)C4)CC3)cc21 (stereo partly drawn) [Compound 37, ((1R)-(2-(((3S,6S,9aS)-3-(3-(4-(4-(4-(1-(2,6-dioxopiperidin-3-yl)-3-methyl-2-oxo-2,3-dihydro-1H-benzo[d]imidazol-5-yl)but-3-yn-1-yl)piperidin-1-yl)pyridin-3-yl)azetidine-1-carbonyl)-5-oxooctahydro-1H-pyrrolo[1,2-a]azepin-6-yl)carbamoyl)benzo[b]thiophen-5-yl)fluoromethyl)phosphonic acid] | > 7.00 | – | 4.52 to 5.52
